Experimental data published in ChEMBL document CHEMBL1201862, “PubChem BioAssay data set” (2004).
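Test compounds were applied to cells in 96-well plates for 48 hours at 5 doses. At the GI50, growth is halved.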 Active and inactive are the calls of the source. Rule as the data show it: active = GI50 up to about 1.1 µM and inactive = higher.

Assays:
Assay in all cases: inhibition of tumour cell growth, NCI panel, 48 h
[1] = test system: ACHN
[2] = test system: HCT-116
[3] = test system: HL-60
[4] = test system: Hs-578T
[5] = test system: LOX IMVI
[6] = test system: M14
[7] = test system: Malme-3M
[8] = test system: OVCAR-3
[9] = test system: OVCAR-5
[10] = test system: OVCAR-8
[11] = test system: SK-MEL-28
[12] = test system: SK-OV-3
[13] = test system: SN12C
[14] = test system: SNB-19
[15] = test system: SNB-75
[16] = test system: T47D
[17] = test system: TK-10
[18] = test system: MDA-N
[19] = test system: SR

Row | Structure (SMILES) | GI50 [1] | GI50 [2] | GI50 [3] | GI50 [4] | GI50 [5] | GI50 [6] | GI50 [7] | GI50 [8] | GI50 [9] | GI50 [10] | GI50 [11] | GI50 [12] | GI50 [13] | GI50 [14] | GI50 [15] | GI50 [16] | GI50 [17] | GI50 [18] | GI50 [19]
1 | COc1ccc(/C=C(/c2ccc(OC)cc2)c2c(Cl)cc(Cl)c(/C(=C\c3ccc(OC)cc3)c3ccc(OC)cc3)c2/N=N/c2ccccc2)cc1 | 72.4 µM (inactive) | > 100 µM (inactive) | > 100 µM (inactive) | > 100 µM (inactive) | > 100 µM (inactive) | > 100 µM (inactive) | > 100 µM (inactive) | > 100 µM (inactive) | > 100 µM (inactive) | > 100 µM (inactive) | > 100 µM (inactive) | > 100 µM (inactive) | > 100 µM (inactive) | > 100 µM (inactive) | > 100 µM (inactive) | > 100 µM (inactive) | > 100 µM (inactive) |  | 
2 | CCOP(=O)(/C=C\n1cc(C)c(=O)[nH]c1=O)OCC | > 100 µM (inactive) | > 100 µM (inactive) | > 100 µM (inactive) |  | > 100 µM (inactive) | > 100 µM (inactive) |  | > 100 µM (inactive) | > 100 µM (inactive) | > 100 µM (inactive) | > 100 µM (inactive) | > 100 µM (inactive) | > 100 µM (inactive) | > 100 µM (inactive) | > 100 µM (inactive) | > 100 µM (inactive) | > 100 µM (inactive) | > 100 µM (inactive) | 
3 | COCP1(=S)OC(C)CCN1C(C)C (configuration not stated) | > 100 µM (inactive) | > 100 µM (inactive) |  |  | > 100 µM (inactive) | > 100 µM (inactive) | > 100 µM (inactive) | > 100 µM (inactive) | > 100 µM (inactive) | > 100 µM (inactive) |  | > 100 µM (inactive) |  | > 100 µM (inactive) |  | > 100 µM (inactive) | > 100 µM (inactive) |  | > 100 µM (inactive)
4 | CN(C(=O)Cc1ccc(Cl)c(Cl)c1)[C@@H]1CCCC[C@H]1[N+]1(C)CC=CC1 | > 100 µM (inactive) | > 100 µM (inactive) | > 100 µM (inactive) |  | > 100 µM (inactive) | > 100 µM (inactive) | > 100 µM (inactive) | > 100 µM (inactive) | > 100 µM (inactive) | > 100 µM (inactive) | > 100 µM (inactive) | > 100 µM (inactive) | > 100 µM (inactive) | > 100 µM (inactive) |  | > 100 µM (inactive) | > 100 µM (inactive) | > 100 µM (inactive) | > 100 µM (inactive)
5 | NC(=O)CO/N=C1/C(=C2/C(=O)Nc3ccccc32)Nc2ccccc21 | 3.48 µM (inactive) | 0.755 µM (active) | 1.96 µM (inactive) | > 100 µM (inactive) | 1.04 µM (active) | 10.4 µM (inactive) | > 100 µM (inactive) | 4.49 µM (inactive) | > 100 µM (inactive) | 62.5 µM (inactive) | > 100 µM (inactive) | 0.522 µM (active) | > 100 µM (inactive) | > 100 µM (inactive) | > 100 µM (inactive) |  | 3.85 µM (inactive) | 53 µM (inactive) | 0.778 µM (active)
6 | CN(CCNC(=O)c1cn(C)c2c1ccc1ccccc12)CCNC(=O)c1cn(C)c2c1ccc1ccccc12 | 3.36 µM (inactive) | 1.99 µM (inactive) |  | 2.18 µM (inactive) | 2.52 µM (inactive) | 1.95 µM (inactive) | 2.14 µM (inactive) | 2.26 µM (inactive) | 1.69 µM (inactive) | 27.9 µM (inactive) | 1.97 µM (inactive) | 8.04 µM (inactive) | 2.64 µM (inactive) | 3.57 µM (inactive) | 1.79 µM (inactive) |  | 1.92 µM (inactive) | 2.22 µM (inactive) | 
